Molecular target: GST-tagged truncated human mutant G2019S LRRK2 (Homo sapiens, UniProt Q5S007, G2019S)
Assay: LRRK2 G2019S Km ATP LanthaScreen assay
Type: biochemical
Conditions: 134 μM ATP (Km ATP), LRRKtide substrate, mean IC50 values; read-out: LRRK2 pIC50 (converted)
How it was run: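 LanthaScreen TR-FRET read with fluorescein-LRRKtide and 134 μM ATP (Km) in Tris pH 8.5/10 mM MgCl2 buffer. The enzyme was preincubated 15 min with compound at room temperature, and the reaction ran 90 min at ambient temperature. Stopped with EDTA plus Tb anti-phospho-LRRKtide antibody; the 520/495 nm ratio gave a 4-parameter logistic IC50, mean of several runs.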

SMILES	IC50
Cc1c(Nc2cc3cc(N4CCN([C@]5(C)COC[C@@H]5O)CC4)c(Cl)cc3cn2)cnn1C1CC1 (single isomer, unassigned) [Ex-1.2, (3R,4R) or (3S,4S) 4-(4-(7-chloro-3-((1-cyclopropyl-5-methyl-1H-pyrazol-4-yl)amino)isoquinolin-6-yl)piperazin-1-yl)-4-methyltetrahydrofuran-3-ol]	8.41 nM
CC1(O)CCN(c2cc3nc(Nc4cnn(C5CC5)c4Cl)ncc3cc2Cl)C1 (stereo not drawn) [Ex-1.38, 1-{6-chloro-2-[(5-chloro-1-cyclopropyl-1H-pyrazol-4-yl)amino]quinazolin-7-yl}-3-methylpyrrolidin-3-ol]	9.77 nM
C[C@]1(O)[C@@H]2CC[C@H]1CN(c1cc3nc(Nc4cnn(C56CC(C5)C6)c4Cl)ncc3cc1Cl)C2 [Ex-3.38, (8-syn)-3-(2-{[1-(bicyclo[1.1.1]pentan-1-yl)-5-chloro-1H-pyrazol-4-yl]amino}-6-chloroquinazolin-7-yl)-8-methyl-3-azabicyclo[3.2.1]octan-8-ol]	6.62 nM
CC1(O)CC2(CN(c3cc4nc(Nc5cnn(C6CC6)c5Cl)ncc4cc3Cl)C2)C1 [Ex-4.28, 2-{6-chloro-2-[(5-chloro-1-cyclopropyl-1H-pyrazol-4-yl)amino]quinazolin-7-yl}-6-methyl-2-azaspiro[3.3]heptan-6-ol]	1.05 nM
CC1(N2CCN(c3cc4cc(Nc5cnn(C6CC6(F)F)c5Cl)ncc4cc3Cl)CC2)COCC1O (single isomer, unassigned) [Ex-6.52, (3S,4S) or (3R,4R) 4-(4-(7-chloro-3-((5-chloro-1-(2,2-difluorocyclopropyl)-1H-pyrazol-4-yl)amino)isoquinolin-6-yl)piperazin-1-yl)-4-methyltetrahydrofuran-3-ol]	3.12 nM
Cc1cc2cnc(Nc3cnn(C4CC4(F)F)c3Cl)nc2cc1N1CCN([C@H]2COC[C@H]2O)CC1 (single isomer, unassigned) [Ex-5.1, (3S, 4S) or (3R, 4R) 4-(4-(2-((5-Chloro-1-(2,2-(R) or (S)difluorocyclopropyl)-1H-pyrazol-4-yl)amino)-6-methylquinazolin-7-yl)piperazin-1-yl)tetrahydrofuran-3-ol]	0.105 nM
Cc1cc2cnc(Nc3cnn(C4CC4(F)F)c3Cl)nc2cc1N1CCNCC1 (stereo not drawn) [Ex-5.14, N-(5-chloro-1-(2,2-difluorocyclopropyl)-1H-pyrazol-4-yl)-6-methyl-7-(piperazin-1-yl)quinazolin-2-amine]	11.6 nM
Cc1cc2cnc(Nc3cnn(C4CC4)c3Cl)nc2cc1N1CCC(C)(O)CC1 [Ex-3.55, 1-{2-[(5-chloro-1-cyclopropyl-1H-pyrazol-4-yl)amino]-6-methylquinazolin-7-yl}-4-methylpiperidin-4-ol]	12.1 nM
CC(C)(O)Cn1cc(Nc2ncc3cc(Cl)c(N4C[C@H]5CC[C@@H](C4)[C@@]5(C)O)cc3n2)cn1 [Ex-3.32, (8-syn)-3-(6-chloro-2-{[1-(2-hydroxy-2-methylpropyl)-1H-pyrazol-4-yl]amino}quinazolin-7-yl)-8-methyl-3-azabicyclo[3.2.1]octan-8-ol]	0.393 nM
O[C@@H]1COC[C@@H]1N1CCN(c2cc3nc(Nc4cnn(C56CC(C5)C6)c4Cl)ncc3cc2Cl)CC1 (single isomer, unassigned) [Ex-13.2, (3S,4S) or (3R,4R)-4-(4-(2-((1-(bicyclo[1.1.1]pentan-1-yl)-5-chloro-1H-pyrazol-4-yl)amino)-6-chloroquinazolin-7-yl)piperazin-1-yl)tetrahydrofuran-3-ol]	3.81 nM
CC1CN(c2cc3nc(Nc4cnn(C5CC5)c4Cl)ncc3cc2Cl)CCN1CC(C)(C)O (stereo not drawn) [Ex-1.32, 1-(4-{6-chloro-2-[(5-chloro-1-cyclopropyl-1H-pyrazol-4-yl)amino]quinazolin-7-yl}-2-methylpiperazin-1-yl)-2-methylpropan-2-ol]	5.49 nM
OC1CCN(c2cc3nc(Nc4cnn(C5CC5)c4)ncc3cc2Cl)CC1 [Ex-3.7, 1-{6-chloro-2-[(1-cyclopropyl-1H-pyrazol-4-yl)amino]quinazolin-7-yl} piperidin-4-ol]	1.44 nM
COC1CCC1n1ncc(Nc2ncc3cc(Cl)c(N4CCC(C)(O)CC4)cc3n2)c1C (single isomer, unassigned) [Ex-6.17, 1-[6-chloro-2-({1-[(1R,2S) or (1S,2R)-2-methoxycyclobutyl]-5-methyl-1H-pyrazol-4-yl}amino)quinazolin-7-yl]-4-methylpiperidin-4-ol]	10.5 nM
C[C@]1(O)[C@@H]2CC[C@H]1CN(c1cc3nc(Nc4cnn(C5CC5)c4)ncc3cc1Cl)C2 [Ex-1.36, (8-syn)-3-{6-chloro-2-[(1-cyclopropyl-1H-pyrazol-4-yl)amino]quinazolin-7-yl}-8-methyl-3-azabicyclo[3.2.1]octan-8-ol]	6.72 nM
Cc1c(Nc2ncc3cc(Cl)c(N4CCN(C5COCC5O)CC4)cc3n2)cnn1CC(F)F (single isomer, unassigned) [Ex-6.25, (3S,4S) or (3R,4R) 4-[4-(6-chloro-2-{[1-(2,2-difluoroethyl)-5-methyl-1H-pyrazol-4-yl]amino}quinazolin-7-yl)piperazin-1-yl]oxolan-3-ol]	0.418 nM
CCn1ncc(Nc2ncc3ccc(N4C(=O)[C@H]5CC[C@@H]4C5)nc3n2)c1C (single isomer, unassigned) [Ex-15.4, (1S,4R) or (1R,4S)-2-{2-[(1-ethyl-5-methyl-1H-pyrazol-4-yl)amino]pyrido[2,3-d]pyrimidin-7-yl}-2-azabicyclo[2.2.1]heptan-3-one]	12.5 nM
Cc1c(Nc2ncc3cc(Cl)c(N4CCN(C5(C)COCC5O)CC4)cc3n2)cnn1C1CC1 (single isomer, unassigned) [Ex-6.18, (3S,4S) or (3R,4R) 4-(4-{6-chloro-2-[(1-cyclopropyl-5-methyl-1H-pyrazol-4-yl)amino]quinazolin-7-yl}piperazin-1-yl)-4-methyloxolan-3-ol]	0.322 nM
CN1CCN(c2cc3nc(Nc4cnn(C5(C)CC5)c4Cl)ncc3cc2Cl)CC1=O [Ex-4.44, 4-(6-chloro-2-{[5-chloro-1-(1-methylcyclopropyl)-1H-pyrazol-4-yl]amino}quinazolin-7-yl)-1-methylpiperazin-2-one]	20 nM
Cc1nsc(Nc2ncc3ccc(N4C(=O)OC[C@@H]4C)cc3n2)c1C [Ex-7.12, (4S)-3-{2-[(3,4-dimethyl-1,2-thiazol-5-yl)amino]quinazolin-7-yl}-4-methyl-1,3-oxazolidin-2-one]	0.625 nM
CC1(O)CC2(CN(c3cc4nc(Nc5cnn(C6CC6)c5)ncc4cc3Cl)C2)C1 [Ex-4.23, 2-{6-chloro-2-[(1-cyclopropyl-1H-pyrazol-4-yl)amino]quinazolin-7-yl}-6-methyl-2-azaspiro[3.3]heptan-6-ol]	2.47 nM
CC(C)(O)Cn1ncc(Nc2ncc3cc(Cl)c(N4C[C@H]5CC[C@@H](C4)[C@@]5(C)O)cc3n2)c1Cl [Ex-3.30, (8-syn)-3-(6-chloro-2-{[5-chloro-1-(2-hydroxy-2-methylpropyl)-1H-pyrazol-4-yl]amino}quinazolin-7-yl)-8-methyl-3-azabicyclo[3.2.1] octan-8-ol]	5.09 nM
Cc1cc2cnc(Nc3cnn(C4CC4)c3Cl)nc2cc1N1CCN(C2(C)COCC2O)CC1 (single isomer, unassigned) [Ex-5.6, (3S,4S) or (3R,4R) 4-(4-(2-((5-chloro-1-cyclopropyl-1H-pyrazol-4-yl)amino)-6-methylquinazolin-7-yl)piperazin-1-yl)-4-methyltetrahydrofuran-3-ol]	0.403 nM
COCC12CC(n3cc(Nc4ncc5cc(Cl)c(N6CCC7(CC6)COC(CO)C7)cc5n4)cn3)(C1)C2 (stereo not drawn) [Ex-3.15, {8-[6-chloro-2-({1-[3-(methoxymethyl)bicyclo[1.1.1]pentan-1-yl]-1H-pyrazol-4-yl}amino)quinazolin-7-yl]-2-oxa-8-azaspiro [4.5]decan-3-yl}methanol]	0.227 nM
CC1CN(c2cc3nc(Nc4cnn(C5CC5)c4Cl)ncc3cc2Cl)CCN1C1COCC1O (single isomer, unassigned) [Ex-12.7, (3S,4S) or (3R, 4R)-4-((R) or (S)-4-(4-(6-chloro-2-((5-chloro-1-cyclopropyl-1H-pyrazol-4-yl)amino)quinazolin-7-yl)-2-methylpiperazin-1-yl)tetrahydrofuran-3-ol]	4.36 nM
CNc1cc2nc(Nc3cnn(C4CCN(C5(C)COC5)CC4)c3Cl)ncc2cc1Cl [Ex-3.44, 6-chloro-N~2~-{5-chloro-1-[1-(3-methyloxetan-3-yl)piperidin-4-yl]-1H-pyrazol-4-yl}-N~7~-methyl-quinazoline-2,7-diamine]	19.5 nM
Cc1c(Nc2ncc3cc(F)c(NCC4CC4)nc3n2)cnn1C1CCOCC1 [Ex-15.5, N-7-(cyclopropylmethyl)-6-fluoro-N-2-[5-methyl-1-(oxan-4-yl)-1H-pyrazol-4-yl]pyrido[2,3-d]pyrimidine-2,7-diamine]	32.6 nM
Clc1cc2cnc(Nc3cnn(C4CC4)c3Cl)nc2cc1N1CCc2[nH]ncc2C1 [Ex-3.25, 6-chloro-N-(5-chloro-1-cyclopropyl-1H-pyrazol-4-yl)-7-(1,4,6,7-tetrahydro-5H-pyrazolo[4,3-c]pyridin-5-yl) quinazolin-2-amine]	1.21 nM
CC1(n2ncc(Nc3ncc4cc(Cl)c(N5CCC(N6CC(F)(F)C6)CC5)cc4n3)c2Cl)CC1 [Ex-4.32, 6-chloro-N-[5-chloro-1-(1-methylcyclopropyl)-1H-pyrazol-4-yl]-7-[4-(3,3-difluoroazetidin-1-yl)piperidin-1-yl]quinazolin-2-amine]	2.02 nM
OCC1CCN(c2cc3nc(Nc4cnn(CC(F)F)c4Cl)ncc3cc2Cl)C1 (stereo not drawn) [Ex-1.15, [1-(6-chloro-2-{[5-chloro-1-(2,2-difluoroethyl)-1H-pyrazol-4-yl]amino}quinazolin-7-yl)pyrrolidin-3-yl]methanol]	5.49 nM
Clc1cc2cnc(Nc3cnn(C45CC(C4)C5)c3Cl)nc2cc1N1CCC2(CCOC2)CC1 [Ex-3.39, N-[1-(bicyclo[1.1.1]pentan-1-yl)-5-chloro-1H-pyrazol-4-yl]-6-chloro-7-(2-oxa-8-azaspiro[4.5]decan-8-yl) quinazolin-2-amine]	3.23 nM
